In patent US20090239901A1, “METHOD AND COMPOSITIONS FOR TREATMENT OF CEREBRAL MALARIA” (priority 2008, published 2009):

How the values were obtained:
[1] = tested on: more than 60 receptors and enzymes
microglia = assay: LPS-induced microglial inflammation in vivo; settings: LPS 1 mg/kg i.p. on days 1, 3 and 5
Experimental: Animals were treated with either vehicle and 8% 2H2O label for 1 week. LPS (1 mg/kg, i.p) was injected on days 1, 3 and 5 of drug treatment and label. Microglia were isolated from brain and sorted by flow cytometry as CD11b+, F4/80+ cells. DNA was isolated from sorted microglia cells, hydrolyzed and derivatized for GC/MS analyses.

hippocampal neurogenesis = hippocampal neurogenesis in vivo; settings: 1 week treatment, 2H2O label
TNF = TNF expression
Description: (§1) All of these events were reported to be important in the development of Cerebral Malaria (CM).

ICAM-1 = assay: TNFα-induced production of ICAM-1 in human brain microvascular endothelial cells; type: cell-based; settings: TNF-treated human brain microvascular endothelial cells (MVECs)
Description: as §1

VCAM-1 = assay: TNFα-induced production of VCAM-1 in human brain microvascular endothelial cells; type: cell-based; settings: TNF-treated human brain microvascular endothelial cells (MVECs)
Description: as §1

Janus kinase 2 (Jak2) = assay: attenuation of Compound A effects by Jak2 inhibitor; settings: both in vitro and in vivo
Description: as §1

sepsis-induced death = sepsis-induced death in rodents (survival study); type: in vivo
Experimental: FIG. 5 is a graph showing results of a study that indicates α7 agonists can prevent sepsis-induced death in rodents. Survival was monitored daily from day 0 to day 6. In the vehicle control group there was a 13% survival by day 6. In the animals treated with 0.003 mg/kg Compound B, there was a 13% survival by day (NS, p=0.360). In the animals treated with 0.03 mg/kg Compound B, there was also a 13% survival by day (NS, p=0.528). […] Survival was 47% in this group, a significant improvement in survival (p=0.005).

Which results are given for Cc1ccc(C(=O)N[C@@H]2C3CCN(CC3)[C@H]2Cc2cccnc2)s1 [Compound A, (2S,3R)-N-(2-((3-pyridinyl)methyl)-1-azabicyclo[2.2.2]oct-3-yl)-5-methylthiophene-2-carboxamide]?
separation with other targets [1]: 100-1000; microglial inflammation (microglia): prevents microglial inflammation in vivo; hippocampal neurogenesis (hippocampal neurogenesis): promotes hippocampal neurogenesis in vivo; TNF expression (TNF): significantly inhibits TNF expression; levels of ICAM-1 expression (ICAM-1): decreases the levels of ICAM-1 and VCAM-1 expression; levels of VCAM-1 expression (VCAM-1): decreases the levels of ICAM-1 and VCAM-1 expression

Which “effect on the effects of Compound A” value (Janus kinase 2 (Jak2)) does the source give for N#C/C(=C/c1ccc(O)c(O)c1)C(=O)NCc1ccccc1 [AG-490] here?
The value was “attenuates the effects of Compound A”.

What does the source list for O=C(N[C@@H]1C2CCN(CC2)[C@H]1Cc1cccnc1)c1cc2ccccc2o1 [Compound B, (2S,3R)-N-(2-((3-pyridinyl)methyl)-1-azabicyclo[2.2.2]oct-3-yl)benzofuran-2-carboxamide]?
survival by day 6 (sepsis-induced death; 0.003 mg/kg, NS, p=0.360, vehicle control 13%): 13%; survival by day 6 (sepsis-induced death; 0.03 mg/kg, NS, p=0.528, vehicle control 13%): 13%; survival by day 6 (sepsis-induced death; 0.3 mg/kg, p=0.005, vehicle control 13%): 47%
